Read-outs that look alike come from different tables or passages of the source.
Key:
ASFV [1] = format: cell-based, African Swine Fever Virus (ASFV)
PI3K/Akt pathway = format: cell-based, pigs
macropinocytosis of PAMs = format: cell-based, pigs
ASFV [2] = format: cell-based, African Swine Fever Virus (ASFV); remark: listed apart in the source
ASFV [3] = format: cell-based, African Swine Fever Virus (ASFV); remark: listed apart in the source
ASFV [4] = format: cell-based, African Swine Fever Virus (ASFV); remark: listed apart in the source
[5] = tested on: clathrin-mediated endocytosis of PAMs; format: cell-based, pigs
LSDV = format: cell-based, Lumpy Skin Disease Virus (LSDV)
PEDV = format: cell-based, Porcine Epidemic Diarrhea Virus (PEDV)
ASFV [6] = assay: microbe, parasite or virus in culture; format: cell-based; settings: African swine fever virus, MA104, read-out: IC50 against ASFV
ASFV [7] = assay: microbe, parasite or virus in culture; format: cell-based; settings: African swine fever virus, read-out: IC50 against ASFV
ASFV [8] = format: cell-based, African Swine Fever Virus (ASFV); remark: listed apart in the source
ASFV [9] = format: cell-based, African Swine Fever Virus (ASFV); remark: listed apart in the source
ASFV [10] = assay: microbe, parasite or virus in culture; format: cell-based; settings: African swine fever virus, BMDM, read-out: IC50 against ASFV

O=c1cc(N2CCOCC2)oc2c(-c3ccccc3)cccc12 [LY294002]
expression of ASFV p72 (Western Blot, Fig. 7(B)) (ASFV [1]): not detected | phosphorylation of Akt (Western Blot, Fig. 7(B)) (PI3K/Akt pathway): completely inhibited | uptake of dextran-Alexa647 by PAMs (macropinocytosis of PAMs): no uptake of dextran-Alexa647 | levels of CP204L and B646L (ASFV [2]): significantly suppressed

COc1ccc2cc1Oc1ccc(cc1)C[C@H]1c3cc(c(OC)cc3CCN1C)Oc1c(OC)c(OC)cc3c1[C@H](C2)N(C)CC3 [TET, Tetrandrine]
cytotoxicity (IPEC-J2 cells): no cytotoxicity | ASFV infection after co-incubation of TET and ASFV (virucidal effect) (ASFV [3]): did not significantly reduce ASFV infection | ASFV infection level (ASFV [4]): less than 0.5% | expression level of ASFV p72 (Western Blot) (ASFV [1]): dose-dependent inhibition | expression of ASFV p72 (Western Blot, Fig. 7(B)) (ASFV [1]): not detected | inhibition rate of TET on ASFV compared to the LY294002 control group (ASFV [1]): ~0% | level of ASFV-p72 protein (Western Blot) (ASFV [1]): significantly reduced | cytotoxicity (Vero cells): no cytotoxicity | cytotoxicity (MDBK cells): no cytotoxicity | transferrin-Alexa594 internalization, treated versus untreated group [5]: no significant difference | inhibitory effect on LSDV (LSDV 117 protein, Western Blot) (LSDV): dose-dependent inhibitory effect | phosphorylation of Akt (Western Blot, Fig. 7(B)) (PI3K/Akt pathway): partially inhibited | phosphorylation of Akt activated by ASFV internalization (PI3K/Akt pathway): inhibited the phosphorylation of Akt | inhibitory effect on PEDV (PEDV N protein, Western Blot) (PEDV): dose-dependent inhibitory effect | Dext (dextran-Alexa647) fluorescence signal, treated versus untreated group (macropinocytosis of PAMs): completely disappeared | uptake of dextran-Alexa647 by PAMs (macropinocytosis of PAMs): no uptake of dextran-Alexa647 | IC50 (ASFV [6]): 870 nM | IC50 (ASFV [7]): 450 nM | ASFV-infected (fluorescent) PAMs by IFA (ASFV [8]): hardly any fluorescent PAMs were observed | ASFV p72 expression level by Western Blot, single-stage treatment (ASFV [9]): significant reduction in ASFV p72 expression level was observed only during the internalization stage | levels of CP204L and B646L (ASFV [2]): significantly suppressed | IC50 (ASFV [10]): 1150 nM
